# Reference: patent US6090829A, “Method for treating excessive aggression” (Eli Lilly and Company, priority 1998, dated 2000)
# Assays:
# [1] = target: 3H-oxotremorine-M binding (muscarinic receptors); experiment: 3H-oxotremorine-M binding inhibition; conditions: radioligand 3H-oxotremorine-M; read-out: inhibition constant (Ki) for binding of 3H-oxotremorine-M
# [2] = test system: m4 receptors; experiment: cAMP formation in CHO m4 cells treated with pertussis toxin; type: cell-based
# Source text: Muscarinic agonists stimulate the formation of cAMP up to 10 fold in CHO m4 cells treated with pertussisi toxin and the pharmacology is consistent with the mediation by m4 receptors. Eckols K. Soc. Neurosci Abstr., 21:2040 (1995).
# [3] = test system: D2 receptor subtype; experiment: pharmacological studies at the D2 receptor subtype
smiles,measurement,setting,value
"CCCCCCOc1nsnc1C1=CCCN(C)C1 [xanomeline, 3-(4-hexyloxy-1,2,5-thiadiazol-3-yl)-1,2,5,6-tetrahydro-1-methylpyridine]",Ki,[1],2 nM
same,stimulation of the formation of cAMP,[2],efficaciously and potently stimulated the formation of cAMP
same,activity at the D2 receptor subtype,[3],active
